# Numbered stars: 1 amine (or outer) side, 2 acyl side, 3 side chain; on linkers, the order of the positions; unused ones are H or OH. Bridge positions count the residues as written; N and C are the ends. Square brackets hold non-standard residues; d marks the D form. Peptide text beside a SMILES is read from it. I, II: the chains in the order shown. * marks the point of attachment. ξ: configuration not given here. Hexanoyl(6-succinimido-3yl) = O=C1CC([*:1])C(=O)N1CCCCCC(=O)[*:2]; EuK = O=C(O)CC[C@H](NC(=O)N[C@@H](CCCCN*)C(=O)O)C(=O)O; Dolaproine = CO[C@@H]([C@@H]1CCCN1)[C@@H](C)C(=O)O; Dil = CC[C@H](C)[C@H](NC)[C@@H](CC(=O)O)OC; PABC = O=C(OCc1ccc(N[*:1])cc1)[*:2]; X1 = C[C@@H](N*)[C@@H](O)c1ccccc1; X2 = O=C(Cc1ccc(CN[*:1])cc1)[*:2]; PEG4 = NCCOCCOCCOCCOCCC(=O)O; NMeV = CN[C@H](C(=O)O)C(C)C; ξCit = NC(=O)NCCCC(N)C(=O)O; CO = O=C([*:1])[*:2]; ξV = CC(C)C(N)C(=O)O; Ahx = NCCCCCC(=O)O
# Legend:
# [1] = tested on: SK-BR-3 (human breast cancer cells); test: Inhibition of cell line proliferation, CCK8; type: cell-based; conditions: for IC50 (MMAE)/IC50 (conjugate): SK-BR-3; for IC50: SK-BR-3, 68-72 hours, CCK8
# Procedure: (§1) Experimental operations: LNCaP, SK-BR-3, NCI-H226, CFPAC-1 and PANC-1 cells were prepared in advance and counted; with a culture medium (IMDM+10% FBS+1× L-Glutamine+1×P/S), the cells LNCaP, SK-BR-3 and CFPAC-1 were diluted to 4×10^4 cells/ml, NCI-H226 was diluted to 2.0×10^4 cells/ml and PANC-1 was diluted to 3.0×10^4 cells/ml; the diluted cell solution was plated in 96-well plates at 100 μl/well; and negative control and blank control wells were set on each plate. After adherent cell culture overnight, the diluted samples to be tested were added at 50 μl/well. The plates were placed in an incubator at 37° C., 5% CO2 and cultured for 68-72 hours. To each well, 15 μl (10% of the liquid volume in a well) of a color developing solution from CCK8 was added; and the plates were incubated at 37° C. for 45-70 minutes and each plate was read at 450 nm on a microplate reader. The data was edited using SoftMax Pro and a 4-P fitting curve was plotted.
# (§2) Experimental Operations: LNCaP, SK-BR-3, MDA-MB-468 and CFPAC-1 cells were prepared in advance and counted; with a culture medium (IMDM+10% FBS+1× L-Glutamine+1×P/S), the cells LNCaP, SK-BR-3, MDA-MB-468 and CFPAC-1 were diluted to 4×10^4 cells/ml; the diluted cell solution was plated in 96-well plates at 100 µl/well; and negative control and blank control wells were set on each plate. After adherent cell culture overnight, the diluted samples to be tested were added at 50 μl/well. The plates were placed in an incubator at 37° C., 5% CO2 and cultured for 68-72 hours. To each well, 15 μl (10% of the liquid volume in a well) of a color developing solution from CCK8 was added; and the plates were incubated at 37° C. for 45-70 minutes and each plate was read at 450 nm on a microplate reader. The data was edited using SoftMax Pro and a 4-P fitting curve was plotted.
# [2] = tested on: CFPAC-1 (human pancreatic cancer cells); test: Inhibition of cell line proliferation, CCK8; type: cell-based; conditions: for IC50 (MMAE)/IC50 (conjugate): CFPAC-1; for IC50: CFPAC-1, 68-72 hours, CCK8
# [3] = tested on: LNCaP (human prostate cancer cells); test: Inhibition of cell line proliferation, CCK8; type: cell-based; conditions: LNCaP; for IC50: 68-72 hours, CCK8
# From the text: Since different cells have different sensitivity to a cell proliferation inhibitory toxicity of the payload in a ligand conjugate, the quantitative analysis may be interfered occasionally. A series of cell lines with known expression levels of receptors of different ligands were selected and tested for the response to inhibitory effects of the cell proliferation of a ligand conjugate and a single payload. The IC50 ratio of a single payload to that of a ligand conjugate in same cell line were taken to remove such interference.
# Experimental operations: LNCaP and 22RV1 cells were prepared in advance, counted, and plated in 96-well cell culture plates at a cell density of 4×10^4 cells/ml and 2.0×10^4 cells/ml, respectively (100 μl/well); negative control and blank control wells were set on each plate. After adherent cell culture overnight, the diluted samples to be tested were added at 50 μl/well. The plates were placed in an incubator at 37° C., 5% CO2 and cultured for 68-72 hours. To each well, 15 μl (10% of the liquid volume in a well) of a color developing solution from CCK8 was added; and the plates were incubated at 37° C. for 45-70 minutes and each plate was read at 450 nm on a microplate reader. The data was edited using SoftMax Pro and a 4-P fitting curve was plotted. […]
# [4] = tested on: MDA-MB-468 (human breast cancer cells); test: Inhibition of cell line proliferation, CCK8; type: cell-based
# [5] = tested on: SCLC-21H (small cell lung cancer cells); test: Tumor growth inhibition in subcutaneous xenograft model (CDX); type: in vivo, BALB/c-nude mice; conditions: SCLC-21H CDX
# Procedure: (§3) Main CDX models: HPAF-II (human pancreatic cancer cells), NCI-H226 (human lung cancer cells) and SCLC-21H (small cell lung cancer cells)
# (§4) The cells or tumor tissue mass were prepared and subcutaneously inoculated into the anterior right flank of BALB/c-nude mice. When the tumor volume expanded to 80-160 mm^3, a randomized grouping was performed, and a model control group and administration groups were set. The mice were administrated from the first day of grouping, wherein the administration dose was adjusted according to the latest weight measurement. The mice were administrated via tail vein injection at an administration volume of 10 μl/g. After grouping and administration, the effects of tumor growth and treatment on normal behaviors of animals, specifically including the activity of experimental animals, food intake and drinking status, weight gain or loss status, and other abnormal conditions in eyes, hair, etc., were monitored. After grouping and administration, the weight of mice was measured twice a week to calculate the rate of weight change; at the same time, the long diameter and short diameter of the tumor were measured with a vernier caliper, and the tumor volume, relative tumor proliferation rate, tumor volume inhibition rate and other indicators were calculated. The formula of tumor volume is TV=0.5 a×b^2, wherein a is […] the long diameter of a tumor and b is the short diameter of a tumor.
# [6] = tested on: NCI-H226 (human lung cancer cells); test: as above; type: in vivo, BALB/c-nude mice
# Procedure: as §3, §4
# [7] = tested on: PANC-1 (human pancreatic cancer cells); test: Inhibition of cell line proliferation, CCK8; type: cell-based
# Procedure: Experimental operations: PANC-1 and CFPAC-1 cells were prepared in advance, counted, and plated in 96-well cell culture plates at a cell density of 4×10^4 cells/ml (100 μl/well); negative control and blank control wells were set on each plate. After adherent cell culture overnight, the diluted samples to be tested were added at 50 μl/well. The plates were placed in an incubator at 37° C., 5% CO2 and cultured for 68-72 hours. To each well, 15 μl (10% of the liquid volume in a well) of a color developing solution from CCK8 was added; and the plates were incubated at 37° C. for 45-70 minutes and each plate was read at 450 nm on a microplate reader. The data was edited using SoftMax Pro and a 4-P fitting curve was plotted.
# as §1
# as §2, with “Operations: LNCaP, MDA-MB-468, CFPAC-1 and PANC-1” for “Operations: LNCaP, SK-BR-3, MDA-MB-468 and CFPAC-1”, “CFPAC-1 and PANC-1 cells were” for “MDA-MB-468 and CFPAC-1 cells were”, “cells LNCaP, MDA-MB-468 and” for “cells LNCaP, SK-BR-3, MDA-MB-468 and”, “to 4×10^4 cells/ml, and PANC-1 was diluted to 3.0×10^4 cells/ml; the” for “to 4×10^4 cells/ml; the”, “at 100 μl/well; and negative” for “at 100 µl/well; and negative”
# [8] = tested on: NCI-H226 (human lung cancer cells); test: Inhibition of cell line proliferation, CCK8; type: cell-based
# Procedure: as §1
# Experimental operations: NCI-H226, CFPAC-1 and MDA-MB-468 cells were prepared in advance and counted; MDA-MB-468 and CFPAC-1 cells were plated at a density of 2×10^4 cells/ml (100 μl/well) and NCI-H226 cells were plated at a density of 1×10^4 cells/ml (100 μl/well) in 96-well plates; and negative control and blank control wells were set on each plate. After adherent cell culture overnight, the diluted samples to be tested were added at 50 μl/well. The plates were placed in an incubator at 37° C., 5% CO2 and cultured for 68-72 hours. To each well, 15 μl (10% of the liquid volume in a well) of a color developing solution from CCK8 was added; and the plates were incubated at 37° C. for 45-70 minutes and each plate was read at 450 nm on a microplate reader. The data was edited using SoftMax Pro and a 4-P fitting curve was plotted.
# [9] = tested on: HPAF-II (human pancreatic cancer cells); test: Tumor growth inhibition in subcutaneous xenograft model (CDX); type: in vivo, BALB/c-nude mice
# Procedure: as §3, §4
SMILES,IC50 (MMAE)/IC50 (conjugate) [1],IC50 [1],IC50 (MMAE)/IC50 (conjugate) [2],IC50 [2],IC50 ratio (MMAE/conjugate) [3],IC50 [3],IC50 (MMAE)/IC50 (conjugate) ([4]; MDA-MB-468),"IC50 ([4]; MDA-MB-468, 68-72 hours, CCK8)",anti-tumor growth effect (in words) [5],anti-tumor growth effect (in words) [6],IC50 (MMAE)/IC50 (conjugate) ([7]; PANC-1),"IC50 ([7]; PANC-1, 68-72 hours, CCK8)",IC50 (MMAE)/IC50 (conjugate) ([8]; NCI-H226),"IC50 ([8]; NCI-H226, 68-72 hours, CCK8)",anti-tumor growth effect (in words) [9]
CC[C@H](C)[C@@H]([C@@H](CC(=O)N1CCC[C@H]1[C@H](OC)[C@@H](C)C(=O)N[C@H](C)[C@@H](O)c1ccccc1)OC)N(C)C(=O)[C@@H](NC(=O)[C@H](C(C)C)N(C)C(=O)OCc1ccc(NC(=O)C(CCCNC(N)=O)NC(=O)[C@@H](NC(=O)CCCCCN2C(=O)CC(SC[C@@H](NC(=O)CCCCCNC(=O)[C@H](CCCCN)NC(=O)[C@H](CC(=O)O)NC(=O)[C@H](CC(=O)O)NC(=O)Cc3ccc(CNC(=O)NCCCC[C@H](NC(=O)N[C@@H](CCC(=O)O)C(=O)O)C(=O)O)cc3)C(=O)NCCOCCOCCOCCOCCC(=O)NCCCCC(N[C@@H](Cc3ccc(O)cc3)C(=O)N[C@@H](CO)C(=O)N[C@@H](Cc3c[nH]c4ccccc34)C(=O)N[C@@H](Cc3cnc[nH]3)C(=O)[C@H]3CCC(=O)N3)C(=O)N[C@@H](CC(C)C)C(=O)N[C@@H](CCCNC(=N)N)C(=O)N3CCC[C@H]3C(=O)CN)C2=O)C(C)C)cc1)C(C)C (stereo partly drawn) [CB-1320],0.016,0.093 µM,0.014,1.09 µM,0.043,0.06 µM,0.011,0.212 µM,obvious anti-tumor growth effect,obvious anti-tumor growth effect,,,,,
CC[C@H](C)[C@@H]([C@@H](CC(=O)N1CCC[C@H]1[C@H](OC)[C@@H](C)C(=O)N[C@H](C)[C@@H](O)c1ccccc1)OC)N(C)C(=O)[C@@H](NC(=O)[C@H](C(C)C)N(C)C(=O)OCc1ccc(NC(=O)C(CCCNC(N)=O)NC(=O)[C@@H](NC(=O)CCCCCN2C(=O)CC(SC[C@@H](NC(=O)CCCCCNC(=O)[C@H](CCCCN)NC(=O)[C@H](CC(=O)O)NC(=O)[C@H](CC(=O)O)NC(=O)Cc3ccc(CNC(=O)NCCCC[C@H](NC(=O)N[C@@H](CCC(=O)O)C(=O)O)C(=O)O)cc3)C(=O)NCCOCCOCCOCCOCCC(=O)N[C@@H](CCCCN)C(=O)N[C@@H](CCC(=O)O)C(=O)N[C@@H](Cc3ccccc3)C(=O)N[C@@H](CC(C)C)C(=O)N[C@@H](Cc3cnc[nH]3)C(=O)N3CCC[C@H]3C(=O)N[C@@H](CO)C(=O)N[C@@H](CCCCN)C(=O)NC(C(=O)N[C@@H](CC(=O)O)C(=O)N[C@@H](CC(C)C)C(=O)N3CCC[C@H]3C(=O)N[C@@H](CCCNC(=N)N)C(=O)O)C(C)C)C2=O)C(C)C)cc1)C(C)C (stereo partly drawn) [CB-1020] (I: {EuK-CO}-[X2]DDK[Ahx][dC][PEG4]KEFLHPSK[ξV]DLPR-OH / II: V[ξCit][PABC][NMeV]V[Dil][Dolaproine]-X1; linker I:6-II:N via Hexanoyl(6-succinimido-3yl)),0.0070,0.287 µM,0.005,3 µM,0.0179,0.168 µM,,,,,0.0044,0.458 µM,0.00384,1.57 µM,obvious anti-tumor growth effect

# Source: patent publication US20220175761A1, “BI-LIGAND DRUG CONJUGATE AND USE THEREOF” (COHERENT BIOPHARMA (SUZHOU), LIMITED, priority 2019, published 2022)
